Article PMC11263240 (Pharmaceutical Research, 2024)
Structures can show the parent of a compound that is named as a salt. Where two headings read alike, the source gives them in different places.

How the values were obtained:
[1] = design: method as in PMID 15275776; details: cited from earlier work
[2] = CNS disposition of ondansetron (brain, spinal cord, CSF) after IV co-administration with tariquidar; format: in vivo, rat; details: ondansetron 10 mg/kg + tariquidar 7.5 mg/kg IV
Procedure: (§1) Animals previously used in the plasma pharmacokinetics study were included following a two-week washout period; and additional animals were added to achieve n = 4–6 per time point. […] Groups of rats were sacrificed at 0.16, 0.25, 0.5, 1, 1.5, 2, and 2.5 h under isoflurane anesthesia, and terminal samples were collected including plasma, brain, spinal cord, and cerebrospinal fluid from cisterna magna (CSF) and stored at −20°C.
Agilent 1260 Infinity HPLC equipped with a photodiode array detector was used (Agilent, Santa Clara, CA, USA) in this work. […] Inter-day and intra-day accuracy and precision of the assay were within 15%.
A standard noncompartmental analysis was performed using average plasma concentration–time data (samples obtained from sequential and terminal experiments were combined) in Phoenix WinNonlin version 8.1 (Certara, Princeton, NJ). For plasma, the area under the plasma concentration–time curve from time zero to infinity (AUCplasma), systemic clearance (CL), volume of distribution at steady state (Vd,ss), half-life (t1/2,plasma), and mean residence time (MRT) were calculated. For brain, spinal cord, and CSF the area under the tissue concentration–time curve (AUCtissue) and half-life in tissue (t1/2,tissue) were reported.
However, since the AUC values were based on terminal samples, no statistical comparison among the groups could be performed.

[3] = Semi-physiological pharmacokinetic model of ondansetron systemic and CNS disposition (estimated parameters); format: in vivo, rat; details: for k12 Distribution rate constant to peripheral distribution compartment / k13 Distribution rate constant to brain compartment / k14 Distribution rate constant to spinal cord compartment / k15 Distribution rate constant to CSF compartment / k21 Distribution rate constant from peripheral distribution compartment / k31 Distribution rate constant from brain compartment / k35=45 Rate constant for brain/spinal cord and CSF exchange / k41 Distribution rate constant from spinal cord compartment / k51 Distribution rate constant from CSF compartment / k53=54 Rate constant for brain/spinal cord and CSF exchange: model estimate shared across WT, KO, OT; for kPgp,TRQ Rate constant for Pgp-mediated efflux from the CNS for OT animals / kPgp Rate constant for Pgp-mediated efflux from the CNS: model estimate; for kPgp,TRQ Rate constant for Pgp-mediated efflux from the CNS for OT animals: OT group (with tariquidar); for kPgp Rate constant for Pgp-mediated efflux from the CNS: wild type animals, ondansetron alone; for Vd / k el: rat, plasma, brain, spinal cord, CSF, iv, 10 mg/kg
Procedure: Interconnectivity of CNS compartments followed animal physiology (A3 - brain, A4 – spinal cord, A5 - CSF), and previously published CNS model were consulted. The volume of the brain (Vbrain) was fixed to a previously determined value of 1.8 mL which was also in agreement with the brain weight reported before. The volume of the CSF compartment (VCSF) was fixed to 0.25 mL [25]. The volume of the spinal cord (Vspinal) was measured and reported in our previous study and was fixed to 0.6 mL. First order rate constant were used to describe a bidirectional passive permeability between the central disposition compartment (with the volume V1) and various CNS compartments (k13, k31, k14, k41, k15, k51) and distributional terms between CNS compartments (k35, k53, k45, k54). Pgp efflux at the BBB was described using a first-order term (kpgp) and was included for wild type animals only; the term was set to zero in KO rats. The following differential Eqs. (1–5) were used: 1 dA1/dt=k21·A2+k31·A3+k41·A4+k51·A5-kel+k12+k13+k14+k15·A1+kPgp·A3+kPgp·A4 2 dA2/dt=k12·A1-k21·A2 3 dA3/dt=k13·A1+k53·A5-k31+k35+kPgp·A3 4 dA4/dt=k14·A1+k54·A5-k41+k45+kPgp·A4 5 dA5/dt=k15·A1+k35·A3+k45·A4-k51+k53+k54·A5
(§2) The whole dataset included mean ondansetron profiles of OT-M and OT-F in plasma, brain, spinal cord, and CSF obtained in this study and previous data for male and female WT and KO animals. […] Several functions to describe tariquidar-induced Pgp inhibition were considered. […] The final model included a separate term for describing Pgp function in OT groups (kPgp,TRQ). Other parameters were shared across WT, KO, and OT models. All model parameters were estimated. A separate set of parameters was estimated for female cohorts (WT-F, KO-F, OT-F) using the same final model structure.
R (version 3.31) and Rstudio (version 1.2.5001, Boston, MA, USA) with Ubiquity package were used for model development as described before.

[4] = Noncompartmental plasma pharmacokinetics of ondansetron after IV co-administration with tariquidar; format: in vivo, rat; details: ondansetron 10 mg/kg with tariquidar, wild type rats vs wild-type (and Pgp KO) rats
Procedure: The study was conducted under the protocol approved by the Institutional Animal Care and Use Committee at Rutgers University. Wild-type Sprague Dawley rats (males of 10–12 weeks, weighing 300–350 g and females of 12–14 weeks, weighing 250–280 g) were purchased from Horizon Discovery (previously Sage Labs Inc., Boyertown, PA). Animals were housed in a vivarium under controlled temperatures and 12/12 h dark/light cycle with free access to food and water. Right jugular vein was cannulated to allow for accurate intravenous dosing using polyethylene tubing (PE-50, Braintree Scientific, Braintree, MA). The surgery was performed under light isoflurane anesthesia, and after that animals were allowed to recover for 24 h. Intradermal bupivacaine and subcutaneous meloxicam were provided as analgesia. […]
A standard noncompartmental analysis was performed using average plasma concentration–time data (samples obtained from sequential and terminal experiments were combined) in Phoenix WinNonlin version 8.1 (Certara, Princeton, NJ). For plasma, the area under the plasma concentration–time curve from time zero to infinity (AUCplasma), systemic clearance (CL), volume of distribution at steady state (Vd,ss), half-life (t1/2,plasma), and mean residence time (MRT) were calculated. […]

[5] = ondansetron alone 10 mg/kg IV, cited from earlier work
[6] = Tariquidar concentrations in plasma, brain, spinal cord and CSF after IV administration; format: in vivo, rat; details: 7.5 mg/kg IV; for half-life: Sprague Dawley, rat, plasma
Procedure: as §1
Agilent 1260 Infinity HPLC equipped with a photodiode array detector was used (Agilent, Santa Clara, CA, USA) in this work.
Data analysis was performed separately for male (OT-M) and female (OT-F) rat groups.

[7] = format: in vivo
Pgp [8] = details: cited from earlier work
Pgp [9] = details: read-out: affinity to Pgp (KD); cited from earlier work
Pgp [10] = assay: Inhibition of Pgp efflux at the CNS by tariquidar in vivo; design: species or system rat; details: tariquidar 7.5 mg/kg IV, 30 min before ondansetron 10 mg/kg IV, wild type rats
Procedure: as §1, §2

Pgp [11] = details: 30 min after intravenous injection of tariquidar doses above 6 mg/kg; cited from earlier work

Cc1nccn1CC1CCc2c(c3ccccc3n2C)C1=O (stereo not shown) [Ondansetron, Ondansetron hydrochloride]
effect of intrathecal administration in a neuropathic animal model [1]: dose-dependent antinociceptive effect
AUCtissue,0-∞ ([2]; Brain, OT-F: female rats): 19.16 h⋅μg⋅mL^−1
AUCtissue,0-∞ ([2]; Brain, OT-M: male rats): 22.0 h⋅μg⋅mL^−1
AUCtissue,0-∞ ([2]; CSF, OT-F: female rats): 1.49 h⋅μg⋅mL^−1
AUCtissue,0-∞ ([2]; CSF, OT-M: male rats): 1.37 h⋅μg⋅mL^−1
AUCtissue,0-∞ ([2]; Spinal Cord, OT-F: female rats): 15.6 h⋅μg⋅mL^−1
AUCtissue,0-∞ ([2]; Spinal Cord, OT-M: male rats): 15.0 h⋅μg⋅mL^−1
k12 Distribution rate constant to peripheral distribution compartment ([3]; Female): 4.37 h⁻¹
k13 Distribution rate constant to brain compartment ([3]; Female): 13.0 h⁻¹
k14 Distribution rate constant to spinal cord compartment ([3]; Female): 3.60 h⁻¹
k15 Distribution rate constant to CSF compartment ([3]; Female): 0.518 h⁻¹
k21 Distribution rate constant from peripheral distribution compartment ([3]; Female): 2.32 h⁻¹
k31 Distribution rate constant from brain compartment ([3]; Female): 25.2 h⁻¹
k35=45 Rate constant for brain/spinal cord and CSF exchange ([3]; Female): 0.914 h⁻¹
k41 Distribution rate constant from spinal cord compartment ([3]; Female): 31.5 h⁻¹
k51 Distribution rate constant from CSF compartment ([3]; Female): 47.3 h⁻¹
k53=54 Rate constant for brain/spinal cord and CSF exchange ([3]; Female): 79.9 h⁻¹
kPgp,TRQ Rate constant for Pgp-mediated efflux from the CNS for OT animals ([3]; Female): 0.0001 h⁻¹
kPgp Rate constant for Pgp-mediated efflux from the CNS ([3]; Female): 101 h⁻¹
k12 Distribution rate constant to peripheral distribution compartment ([3]; Male): 2.14 h⁻¹
k13 Distribution rate constant to brain compartment ([3]; Male): 17.6 h⁻¹
k14 Distribution rate constant to spinal cord compartment ([3]; Male): 9.37 h⁻¹
k15 Distribution rate constant to CSF compartment ([3]; Male): 0.081 h⁻¹
k21 Distribution rate constant from peripheral distribution compartment ([3]; Male): 2.62 h⁻¹
k31 Distribution rate constant from brain compartment ([3]; Male): 39.6 h⁻¹
k35=45 Rate constant for brain/spinal cord and CSF exchange ([3]; Male): 0.928 h⁻¹
k41 Distribution rate constant from spinal cord compartment ([3]; Male): 71.0 h⁻¹
k51 Distribution rate constant from CSF compartment ([3]; Male): 6.84 h⁻¹
k53=54 Rate constant for brain/spinal cord and CSF exchange ([3]; Male): 66.6 h⁻¹
kPgp,TRQ Rate constant for Pgp-mediated efflux from the CNS for OT animals ([3]; Male): 0.002 h⁻¹
kPgp Rate constant for Pgp-mediated efflux from the CNS ([3]; Male): 81.9 h⁻¹
Vd ([3]; female, Sprague Dawley, with tariquidar (co-administered), read-out: V1,TRQ Central volume of distribution): 0.0113 L
k el ([3]; female, Sprague Dawley, with tariquidar (co-administered), read-out: kel,TRQ Systemic elimination rate constant for OT animals (converted)): 0.000839 s⁻¹
Vd ([3]; female, read-out: V1 Central volume of distribution): 0.0133 L
k el ([3]; female, read-out: kel Systemic elimination rate constant (converted)): 0.00141 s⁻¹
Vd ([3]; male, Sprague Dawley, with tariquidar (co-administered), read-out: V1,TRQ Central volume of distribution): 0.0127 L
k el ([3]; male, Sprague Dawley, with tariquidar (co-administered), read-out: kel,TRQ Systemic elimination rate constant for OT animals (converted)): 0.000939 s⁻¹
Vd ([3]; male, read-out: V1 Central volume of distribution): 0.0175 L
k el ([3]; male, read-out: kel Systemic elimination rate constant (converted)): 0.001 s⁻¹
plasma ondansetron concentration in comparison to ondansetron administered alone [4]: almost doubled
KP_KO ([5]; Brain, female Pgp knockout rats): 3.04
KP_WT ([5]; Brain, female wild type rats): 0.71
KP_KO ([5]; Brain, male Pgp knockout rats): 2.52
KP_WT ([5]; Brain, male wild type rats): 0.46
KP_KO ([5]; CSF, female Pgp knockout rats): 0.22
KP_WT ([5]; CSF, female wild type rats): 0.11
KP_KO ([5]; CSF, male Pgp knockout rats): 0.19
KP_WT ([5]; CSF, male wild type rats): 0.06
KP_KO ([5]; Spinal Cord, female Pgp knockout rats): 1.34
KP_WT ([5]; Spinal Cord, female wild type rats): 0.47
KP_KO ([5]; Spinal Cord, male Pgp knockout rats): 1.78
KP_WT ([5]; Spinal Cord, male wild type rats): 0.39

COc1cc2c(cc1OC)CN(CCc1ccc(NC(=O)c3cc(OC)c(OC)cc3NC(=O)c3cnc4ccccc4c3)cc1)CC2 [Tariquidar]
half-life ([6]; female rats): 2.2 h
half-life ([6]; male rats): 3.1 h
Tariquidar detection in CSF samples ([6]; rats, limit of detection 50 ng/mL for CSF): could not be detected
toxicity in rats immediately after ondansetron injection ([7]; tariquidar 15 mg/kg 30 min before ondansetron 10 mg/kg): toxicity
toxicity in rats after ondansetron injection ([7]; tariquidar dose decreased to 7.5 mg/kg, ondansetron 10 mg/kg): eliminating this toxicity
inhibitory activity (IC50) (Pgp [8]): nM-range
Kd (Pgp [9]): 5.1 nM
inhibition of Pgp efflux of ondansetron in the brain and spinal cord (Pgp [10]): almost complete inhibition
inhibition of Pgp (Pgp [11]): complete inhibition
